Data published in ChEMBL document CHEMBL5113481, “Design, synthesis and biological evaluation of quinoline-2-carbonitrile-based hydroxamic acids as dual tubulin polymerization and histone deacetylases inhibitors” (Eur J Med Chem, 2022).
In brackets after ≈: the same amount, converted by molar mass. Activity calls are given as the source filed them. The rule behind the calls is not given here.

Legend:
HCT-116 = test: Antiproliferative activity against human HCT-116 cells after 72 hrs by CellTiter Glo assay; format: functional, cell-based; details: for GI50: time 72 hrs
[1] = Metabolic stability in human liver microsomes assessed as half-life measured upto 6 hrs in presence of NADPH generating system by HPLC-MS/MS analysis; format: ADME, Microsome
NCI-N87 = test: Antiproliferative activity against human NCI-N87 cells after 72 hrs by CellTiter Glo assay; format: functional, cell-based; details: NCI-N87, 72 h
SK-OV-3 = test: Antiproliferative activity against human SK-OV-3 cells after 72 hrs by CellTiter Glo assay; format: functional, cell-based; details: SK-OV-3, 72 h
[2] = Metabolic stability in rat liver microsomes assessed as half-life measured upto 6 hrs in presence of NADPH generating system by HPLC-MS/MS analysis; format: ADME, Microsome
[3] = Metabolic stability in rat liver microsomes assessed as intrinsic clearance per mg protein measured upto 6 hrs in presence of NADPH generating system by HPLC-MS/MS analysis; format: ADME, Microsome; details: read-out: CLH
A549 = test: Antiproliferative activity against human A549 cells after 72 hrs by CellTiter Glo assay; format: functional, cell-based; details: A549, 72 h
Tubulin = test: Inhibition of tubulin polymerization in human HeLa cells assessed as microtubule network polymerization after 30 mins by immunofluorescence analysis; format: cell-based
K562 [4] = test: Antiproliferative activity against imatinib-resistant human K562 cells over expressing MDR1 after 72 hrs by CellTiter Glo assay; format: functional, cell-based; details: K562, 72 h
[5] = Metabolic stability in human liver microsomes assessed as intrinsic clearance per mg protein measured upto 6 hrs in presence of NADPH generating system by HPLC-MS/MS analysis; format: ADME, Microsome; details: read-out: CLH
K562 [6] = test: Antiproliferative activity against human K562 cells after 72 hrs by CellTiter Glo assay; format: functional, cell-based; details: K562, 72 h
MIA PaCa-2 = test: Antiproliferative activity against human MIA PaCa-2 cells after 72 hrs by CellTiter Glo assay; format: functional, cell-based; details: MIA PaCa-2, 72 h
MDA-MB-231 = test: Antiproliferative activity against human MDA-MB-231 cells after 72 hrs by CellTiter Glo assay; format: functional, cell-based; details: MDA-MB-231, 72 h
MCF7 = test: Antiproliferative activity against human MCF7 cells after 72 hrs by CellTiter Glo assay; format: functional, cell-based; details: MCF7, 72 h
HT-29 [7] = test: Antiproliferative activity against human HT-29 cells after 72 hrs by CellTiter Glo assay; format: functional, cell-based; details: HT-29, 72 h
[8] = target: T1, Protein deacetylase HDAC6 (Homo sapiens, UniProt Q9UBN7); test: Inhibition of HDAC6 (unknown origin) measured by fluorometry assay
T1 sequence (Q9UBN7 whole entry): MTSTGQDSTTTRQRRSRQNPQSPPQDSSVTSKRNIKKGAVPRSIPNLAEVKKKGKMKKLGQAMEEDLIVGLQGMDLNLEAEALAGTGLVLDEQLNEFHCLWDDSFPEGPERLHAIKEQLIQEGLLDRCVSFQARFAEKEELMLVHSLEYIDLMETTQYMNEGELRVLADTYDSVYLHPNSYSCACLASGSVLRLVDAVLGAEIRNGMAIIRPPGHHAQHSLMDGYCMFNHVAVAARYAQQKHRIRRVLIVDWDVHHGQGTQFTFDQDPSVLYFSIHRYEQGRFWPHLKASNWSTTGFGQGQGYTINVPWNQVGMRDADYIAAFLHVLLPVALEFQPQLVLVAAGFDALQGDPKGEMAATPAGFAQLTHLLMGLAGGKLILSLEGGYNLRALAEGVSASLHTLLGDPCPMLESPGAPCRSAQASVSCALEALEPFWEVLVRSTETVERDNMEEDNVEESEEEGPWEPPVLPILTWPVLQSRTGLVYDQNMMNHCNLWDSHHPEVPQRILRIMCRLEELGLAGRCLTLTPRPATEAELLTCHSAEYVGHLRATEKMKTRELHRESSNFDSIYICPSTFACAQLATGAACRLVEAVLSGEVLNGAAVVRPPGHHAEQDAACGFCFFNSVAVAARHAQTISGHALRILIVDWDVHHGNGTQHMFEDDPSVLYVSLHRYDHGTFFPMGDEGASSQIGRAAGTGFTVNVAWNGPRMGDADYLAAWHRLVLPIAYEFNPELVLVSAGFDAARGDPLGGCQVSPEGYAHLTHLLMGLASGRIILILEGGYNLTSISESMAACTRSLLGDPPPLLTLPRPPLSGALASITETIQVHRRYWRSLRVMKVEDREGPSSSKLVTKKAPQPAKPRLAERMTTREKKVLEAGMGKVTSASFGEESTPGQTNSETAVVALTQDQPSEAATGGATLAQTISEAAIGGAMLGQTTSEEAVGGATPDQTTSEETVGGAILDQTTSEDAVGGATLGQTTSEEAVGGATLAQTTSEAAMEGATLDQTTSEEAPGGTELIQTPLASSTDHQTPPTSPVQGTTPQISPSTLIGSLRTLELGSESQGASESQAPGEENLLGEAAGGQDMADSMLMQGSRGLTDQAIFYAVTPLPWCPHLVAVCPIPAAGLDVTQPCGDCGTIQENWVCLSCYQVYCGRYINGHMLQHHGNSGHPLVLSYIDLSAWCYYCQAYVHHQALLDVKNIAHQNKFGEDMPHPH

Histone deacetylase 11 = target: T2, Histone deacetylase 11 (Homo sapiens, UniProt Q96DB2); test: Inhibition of HDAC11 (unknown origin) measured by fluorometry assay
T2 sequence (Q96DB2 whole entry): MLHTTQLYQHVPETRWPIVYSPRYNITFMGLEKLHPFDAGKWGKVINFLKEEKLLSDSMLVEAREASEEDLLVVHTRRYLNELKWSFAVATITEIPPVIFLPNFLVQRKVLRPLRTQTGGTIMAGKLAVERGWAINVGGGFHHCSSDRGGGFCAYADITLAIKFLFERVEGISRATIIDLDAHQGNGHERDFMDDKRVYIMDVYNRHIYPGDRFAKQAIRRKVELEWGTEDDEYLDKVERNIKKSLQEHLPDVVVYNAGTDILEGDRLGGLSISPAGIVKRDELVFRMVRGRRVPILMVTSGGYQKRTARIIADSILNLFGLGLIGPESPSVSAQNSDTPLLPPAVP

HT-29 [9] = test: Induction of mitochondrial dysfunction in human HT-29 cells at 2 nM measured after 48 hrs by JC-1 staining based flow cytometry; format: functional, cell-based
HT-29 [10] = test: Cell cycle arrest in human HT-29 cells assessed as accumulation of cells in G2/M phase at 5 nM measured after 24 hrs by PI staining based flow cytometry method; format: functional
Histone deacetylase 8 = target: T3, Histone deacetylase 8 (Homo sapiens, UniProt Q9BY41); test: Inhibition of HDAC8 (unknown origin) measured by fluorometry assay
T3 sequence (Q9BY41 whole entry): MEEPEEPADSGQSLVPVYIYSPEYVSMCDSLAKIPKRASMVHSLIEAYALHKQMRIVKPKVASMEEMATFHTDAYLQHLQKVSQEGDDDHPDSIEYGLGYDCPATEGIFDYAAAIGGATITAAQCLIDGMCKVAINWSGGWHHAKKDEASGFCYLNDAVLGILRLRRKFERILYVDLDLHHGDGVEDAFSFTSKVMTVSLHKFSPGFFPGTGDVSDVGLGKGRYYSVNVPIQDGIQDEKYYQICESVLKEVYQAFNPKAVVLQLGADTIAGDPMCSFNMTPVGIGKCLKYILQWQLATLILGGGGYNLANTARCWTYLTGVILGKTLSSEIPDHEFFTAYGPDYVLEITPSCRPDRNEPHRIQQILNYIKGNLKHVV

[11] = Solubility of compound in water; format: physicochemical
HT-29 [12] = test: Cell cycle arrest in human HT-29 cells assessed as accumulation of cells in G2/M phase at 0.1 to 5 nM measured after 24 hrs by PI staining based flow cytometry method; format: functional; details: dose 0.1-5 nM, DDE = dose-dependent effect

## C=C(c1ccc(OC)c(O)c1)c1cc(OC)c(OC)c(OC)c1
HCT-116; Homo sapiens, HCT-116
  GI50: 2.2 nM
[1]
  half-life: 12 h
NCI-N87
  IC50: 14 nM
SK-OV-3
  IC50: 5 nM
[2]
  half-life: 4.24 h
[3]
  microsomal CLint: 2.73 µL/min/mg
A549
  IC50: 12 nM
Tubulin
  IC50: 6 nM
K562 [4]
  IC50: 3 nM
[5]
  microsomal CLint: 0.96 µL/min/mg

## CC(/C=C/C(=O)NO)=C\[C@@H](C)C(=O)c1ccc(N(C)C)cc1 [TRICHOSTATIN]
K562 [6]
  IC50: 260 nM
MIA PaCa-2
  IC50: 200 nM
HCT-116
  GI50: 35 nM
MDA-MB-231
  IC50: 91 nM
MCF7
  IC50: 54 nM
NCI-N87
  IC50: 58 nM
SK-OV-3
  IC50: 100 nM
A549
  IC50: 80 nM
K562 [4]
  IC50: 90 nM
HT-29 [7]
  IC50: 55 nM

## COc1ccc(N(C)c2cc(C#N)nc3ccccc23)cc1C#CCCC(=O)NO
HCT-116; Homo sapiens, HCT-116
  GI50: 25.2 nM

## COc1ccc(N(C)c2cc(C#N)nc3ccccc23)cc1/C=C/CCC(=O)NO
HCT-116; Homo sapiens, HCT-116
  GI50: 34.4 nM

## COc1ccc(N(C)c2cc(C#N)nc3ccccc23)cc1OCCCC(=O)NO
HCT-116; Homo sapiens, HCT-116
  GI50: 381 nM

## COc1ccc(Cn2ccc3ccc(C(=O)NO)cc32)cc1
K562 [6]
  IC50: 2010 nM
MIA PaCa-2
  IC50: > 20000 nM
HCT-116; Homo sapiens, HCT-116
  GI50: 2600 nM
MCF7
  IC50: 2980 nM
NCI-N87
  IC50: 1500 nM
A549
  IC50: 2000 nM
K562 [4]
  IC50: 2200 nM
HT-29 [7]
  IC50: > 10000 nM

## COc1ccc(N(C)c2cc(C)nc3ccccc23)cc1/C=C/C(=O)NO
HCT-116; Homo sapiens, HCT-116
  GI50: 6.3 nM

## COc1ccc(N(C)c2nc(C)nc3ccccc23)cc1/C=C/C(=O)NO
K562 [6]
  IC50: 0.38 nM
[8]
  IC50: 2000 nM
MIA PaCa-2
  IC50: 1.1 nM
HCT-116; Homo sapiens, HCT-116
  GI50: 0.6 nM
MDA-MB-231
  IC50: 0.55 nM
MCF7
  IC50: 0.8 nM
[1]
  half-life: 9 h
NCI-N87
  IC50: 0.17 nM
SK-OV-3
  IC50: 0.3 nM
[2]
  half-life: 3.53 h
[3]
  microsomal CLint: 3.27 µL/min/mg
Histone deacetylase 11
  IC50: 3200 nM
A549
  IC50: 0.51 nM
HT-29 [9]
  Activity: Active
HT-29 [10]
  Activity: >95%
K562 [4]
  IC50: 1.63 nM
Histone deacetylase 8
  IC50: 280 nM
HT-29 [7]
  IC50: 0.66 nM
[11]
  solubility: 65 µg/mL (≈ 178 µM)
[5]
  microsomal CLint: 1.28 µL/min/mg
HT-29 [12]
  Activity: Dde

## COc1ccc(N(C)c2cc(C#N)nc3ccccc23)cc1I
HCT-116; Homo sapiens, HCT-116
  GI50: 24.6 nM

## COc1ccc(N(C)c2cc(C#N)nc3ccccc23)cc1/C=C/C(=O)NOC1CCCCO1 (stereo unspecified)
HCT-116; Homo sapiens, HCT-116
  GI50: 4.91 nM

## C=C(c1ccc(OC)c(/C=C/C(=O)NO)c1)c1cc(OC)c(OC)c(OC)c1
K562 [6]
  IC50: 1.6 nM
MIA PaCa-2
  IC50: 6 nM
HCT-116; Homo sapiens, HCT-116, 72 h
  IC50: 1.5 nM
MDA-MB-231
  IC50: 4.6 nM
MCF7
  IC50: 2.2 nM
[1]
  half-life: 14 h
NCI-N87
  IC50: 3.2 nM
SK-OV-3
  IC50: 4 nM
[2]
  half-life: 4.42 h
[3]
  microsomal CLint: 2.57 µL/min/mg
A549
  IC50: 2 nM
K562 [4]
  IC50: 1.4 nM
HT-29 [7]
  IC50: 2 nM
[5]
  microsomal CLint: 0.83 µL/min/mg

## COc1ccc(N(C)c2cc(C#N)nc3ccccc23)cc1OCC(=O)NO
HCT-116; Homo sapiens, HCT-116
  GI50: 64.5 nM

## COc1ccc(N(C)c2cc(C)nc3ccccc23)cc1/C=C/C(=O)NOC1CCCCO1 (stereo unspecified)
HCT-116; Homo sapiens, HCT-116
  GI50: 30.3 nM

## COc1ccc(N(C)c2nc(C#N)nc3ccccc23)cc1/C=C/C(=O)NO
HCT-116; Homo sapiens, HCT-116
  GI50: 1.5 nM

## COc1ccc(N(C)c2nc(C)nc3ccccc23)cc1/C=C/C(=O)NOC1CCCCO1 (stereo unspecified)
HCT-116; Homo sapiens, HCT-116
  GI50: 12.5 nM

## C=C(c1ccc(OC)c(/C=C/C(=O)NO)c1)c1cc(C)nc2ccccc12
HCT-116; Homo sapiens, HCT-116
  GI50: 10.1 nM

## COc1ccc(/C=C\c2cc(OC)c(OC)c(OC)c2)cc1O [COMBRETASTATIN A4]
MIA PaCa-2
  IC50: 8 nM
HCT-116; Homo sapiens, HCT-116
  GI50: 2.4 nM
MCF7
  IC50: 172 nM
NCI-N87
  IC50: 11 nM
SK-OV-3
  IC50: 6 nM
K562 [4]
  IC50: 25 nM
HT-29 [7]
  IC50: > 10000 nM
